Results published in publication PMC11606603, “The membrane domains of mammalian adenylyl cyclases are lipid receptors” (eLife, 2024).
Values joined by “and” are separate entries in the source; they are usually repeats but may differ in a detail not shown here. Identical values can stand only once.

Tests used:
Format in all cases: biochemical
mAC9 = target: T1, mAC9 (Homo sapiens, UniProt O60503); test: AC assay, Gsα-stimulated mAC9 in membranes from transfected HEK293 cells; conditions: 1 µM fatty acid; 300 nM Gsα; single experiments
T1 construct: Human mAC genes were from GenScript and fitted with a C-terminal FLAG-tag; FLAG (C); made in house; host or cells: HEK293, permanently transfected; membrane preparation
Procedure: (§1) hAC sequences were from NCBI were: ADCY1: NM_021116.3; ADCY2: NM_020546.2; ADCY3: NM_004036.4; ADCY4: NM_001198568.2; ADCY5: NM_183357.2; ADCY6: NM_015270.4; ADCY7: NM_001114.4; ADCY8: NM_001115.2; ADCY9: NM_001116.3. Human mAC genes were from GenScript and fitted with a C-terminal FLAG-tag. […] The gene was synthesized by GenScript. HEK293 cells were maintained in Dulbeccos Modified Eagle Medium (DMEM) with 10% fetal bovine serum at 37°C and 5% CO2. Transfection with AC plasmids was with PolyJet (SignaGen, Frederick, MD, USA). Permanent cell lines were generated by selection for 7 days with 600 µg/ml G418 and maintained with 300 µg/ml For membrane preparation, cells were tyrpsinized, collected by centrifugation (3000 × g, 5 min) and lysed and homogenized in 20 mM HEPES, pH 7.5, 1 mM Ethylenediaminetetraacetic acid (EDTA), 2 mM MgCl2, 1 mM Dithiothreitol (DTT), one tablet of cOmplete, EDTA-free (per 50 ml) and 250 mM sucrose by 20 strokes in a potter homogenizer on ice. Debris was removed (5 min at 1000 × g, 0°C), membranes were collected at 100,000 × g, 60 min at 0°C, suspended and stored at −80°C in 20 mM MOPS, pH 7.5, 0.5 mM EDTA, 2 mM MgCl2. […] Three cerebral cortices were dissected and homogenized in 4.5 ml cold 48 mM Tris–HCl, pH 7.4, 12 mM MgC1_2, and 0.1 mM Ethylene glycol-bis(β-aminoethyl ether)-N,N,N′,N′-tetraacetic acid (EGTA) with a Polytron hand disperser (Kinematica AG, Switzerland). […] The pellet was washed once with 5 ml 1 mM KHCO3. The final suspension in 2 ml 1 mM KHCO3 was stored in aliquots at −80°C.
(§2) In a volume of 10 μl, AC activities were measured using 1 mM ATP, 2 mM MgCl2, 3 mM creatine phosphate, 60 μg/ml creatine kinase, and 50 mM MOPS pH 7.5. The cAMP assay kit from Cisbio (Codolet, France) was used for detection according to the supplier’s instructions. For each assay, a cAMP standard curve was established. EC50 and IC50 values were calculated by GraphPad Prism version 8.4.3 for Windows, GraphPad Software, San Diego, CA, USA, https://www.graphpad.com .

mAC8 = target: T2, mAC8 (Homo sapiens, UniProt P40145); test: AC assay, Gsα-stimulated mAC8 in membranes from transfected HEK293 cells; conditions: 20µM fatty acid concentration
T2 construct: Human mAC genes were from GenScript and fitted with a C-terminal FLAG-tag; FLAG (C); made in house; host or cells: HEK293, permanently transfected; membrane preparation
T2 sequence (P40145 whole entry): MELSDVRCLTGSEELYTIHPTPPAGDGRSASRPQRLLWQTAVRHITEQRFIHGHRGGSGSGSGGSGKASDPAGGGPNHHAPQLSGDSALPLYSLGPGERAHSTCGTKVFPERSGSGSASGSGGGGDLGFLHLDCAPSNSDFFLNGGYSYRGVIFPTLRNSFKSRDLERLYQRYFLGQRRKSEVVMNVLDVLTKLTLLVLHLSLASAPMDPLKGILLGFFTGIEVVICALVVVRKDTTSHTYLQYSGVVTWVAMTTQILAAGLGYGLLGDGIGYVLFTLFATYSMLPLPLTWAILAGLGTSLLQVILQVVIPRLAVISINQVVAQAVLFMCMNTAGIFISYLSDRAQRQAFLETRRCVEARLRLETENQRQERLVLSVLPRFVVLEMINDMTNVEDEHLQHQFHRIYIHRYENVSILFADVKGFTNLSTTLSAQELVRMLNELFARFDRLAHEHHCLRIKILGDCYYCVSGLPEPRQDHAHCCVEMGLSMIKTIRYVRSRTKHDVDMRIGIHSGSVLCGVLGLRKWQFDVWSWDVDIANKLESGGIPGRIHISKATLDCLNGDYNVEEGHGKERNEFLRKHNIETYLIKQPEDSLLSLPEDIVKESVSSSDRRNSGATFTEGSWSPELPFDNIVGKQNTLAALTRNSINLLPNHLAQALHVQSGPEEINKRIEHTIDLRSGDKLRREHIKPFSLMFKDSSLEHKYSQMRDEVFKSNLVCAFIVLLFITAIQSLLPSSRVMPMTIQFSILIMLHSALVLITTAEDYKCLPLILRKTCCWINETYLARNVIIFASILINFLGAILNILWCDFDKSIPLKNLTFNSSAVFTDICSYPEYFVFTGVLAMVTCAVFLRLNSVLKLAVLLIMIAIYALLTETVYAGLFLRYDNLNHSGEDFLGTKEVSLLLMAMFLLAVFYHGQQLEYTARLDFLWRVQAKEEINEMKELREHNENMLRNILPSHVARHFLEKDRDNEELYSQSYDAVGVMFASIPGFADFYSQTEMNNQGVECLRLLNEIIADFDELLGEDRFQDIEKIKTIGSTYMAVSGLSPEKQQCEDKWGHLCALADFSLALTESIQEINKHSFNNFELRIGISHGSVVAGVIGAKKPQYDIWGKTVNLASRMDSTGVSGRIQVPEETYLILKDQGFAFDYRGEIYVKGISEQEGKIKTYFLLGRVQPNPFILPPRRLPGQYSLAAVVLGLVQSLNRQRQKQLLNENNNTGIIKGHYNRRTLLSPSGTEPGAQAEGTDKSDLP
Procedure: as §1, §2

mAC4 = target: T3, mAC4 (Homo sapiens, UniProt Q8NFM4); test: AC assay, Gsα-stimulated mAC4 in membranes from transfected HEK293 cells
T3 construct: Human mAC genes were from GenScript and fitted with a C-terminal FLAG-tag; FLAG (C); made in house; host or cells: HEK293, permanently transfected; membrane preparation
T3 sequence (Q8NFM4 1-1077): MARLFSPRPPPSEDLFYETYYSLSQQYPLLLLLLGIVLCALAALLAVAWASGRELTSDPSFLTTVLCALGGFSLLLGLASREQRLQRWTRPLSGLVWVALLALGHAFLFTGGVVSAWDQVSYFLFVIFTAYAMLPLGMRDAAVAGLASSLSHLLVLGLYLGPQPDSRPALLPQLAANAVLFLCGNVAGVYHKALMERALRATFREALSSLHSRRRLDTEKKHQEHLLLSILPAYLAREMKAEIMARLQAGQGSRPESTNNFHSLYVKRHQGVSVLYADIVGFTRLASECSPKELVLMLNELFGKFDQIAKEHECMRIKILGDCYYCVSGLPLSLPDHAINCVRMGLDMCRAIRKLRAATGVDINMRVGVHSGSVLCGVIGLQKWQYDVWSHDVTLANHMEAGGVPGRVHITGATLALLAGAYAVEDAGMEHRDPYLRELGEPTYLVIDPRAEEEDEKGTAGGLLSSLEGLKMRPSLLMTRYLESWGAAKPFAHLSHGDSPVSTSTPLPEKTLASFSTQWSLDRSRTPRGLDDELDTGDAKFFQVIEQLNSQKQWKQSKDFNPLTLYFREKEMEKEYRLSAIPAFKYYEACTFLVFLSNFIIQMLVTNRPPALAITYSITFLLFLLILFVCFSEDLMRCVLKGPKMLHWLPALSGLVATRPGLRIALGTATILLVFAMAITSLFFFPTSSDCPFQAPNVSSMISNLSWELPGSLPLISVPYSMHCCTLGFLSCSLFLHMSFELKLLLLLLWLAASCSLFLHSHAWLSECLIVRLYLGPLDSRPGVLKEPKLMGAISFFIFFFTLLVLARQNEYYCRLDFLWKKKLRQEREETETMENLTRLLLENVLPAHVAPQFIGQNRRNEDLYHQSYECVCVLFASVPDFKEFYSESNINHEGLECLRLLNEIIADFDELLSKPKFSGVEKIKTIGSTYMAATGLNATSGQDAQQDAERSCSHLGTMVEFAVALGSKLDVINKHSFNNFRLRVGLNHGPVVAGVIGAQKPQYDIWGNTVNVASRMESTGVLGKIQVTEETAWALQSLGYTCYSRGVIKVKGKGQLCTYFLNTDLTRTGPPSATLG
Procedure: as §1, §2

mAC2 = target: T4, mAC2 (Homo sapiens, UniProt Q08462); test: AC assay, Gsα-stimulated mAC2 in membranes from transfected HEK293 cells; conditions: Figure 5-figure supplement 1 left, 20 µM
T4 construct: Human mAC genes were from GenScript and fitted with a C-terminal FLAG-tag; FLAG (C); made in house; host or cells: HEK293, permanently transfected; membrane preparation
Procedure: as §1, §2

mAC3 = target: T5, mAC3 (Homo sapiens, UniProt O60266); test: AC assay, Gsα-stimulated mAC3 in membranes from transfected HEK293 cells
T5 construct: Human mAC genes were from GenScript and fitted with a C-terminal FLAG-tag; FLAG (C); made in house; host or cells: HEK293, permanently transfected; membrane preparation
T5 sequence (O60266 whole entry): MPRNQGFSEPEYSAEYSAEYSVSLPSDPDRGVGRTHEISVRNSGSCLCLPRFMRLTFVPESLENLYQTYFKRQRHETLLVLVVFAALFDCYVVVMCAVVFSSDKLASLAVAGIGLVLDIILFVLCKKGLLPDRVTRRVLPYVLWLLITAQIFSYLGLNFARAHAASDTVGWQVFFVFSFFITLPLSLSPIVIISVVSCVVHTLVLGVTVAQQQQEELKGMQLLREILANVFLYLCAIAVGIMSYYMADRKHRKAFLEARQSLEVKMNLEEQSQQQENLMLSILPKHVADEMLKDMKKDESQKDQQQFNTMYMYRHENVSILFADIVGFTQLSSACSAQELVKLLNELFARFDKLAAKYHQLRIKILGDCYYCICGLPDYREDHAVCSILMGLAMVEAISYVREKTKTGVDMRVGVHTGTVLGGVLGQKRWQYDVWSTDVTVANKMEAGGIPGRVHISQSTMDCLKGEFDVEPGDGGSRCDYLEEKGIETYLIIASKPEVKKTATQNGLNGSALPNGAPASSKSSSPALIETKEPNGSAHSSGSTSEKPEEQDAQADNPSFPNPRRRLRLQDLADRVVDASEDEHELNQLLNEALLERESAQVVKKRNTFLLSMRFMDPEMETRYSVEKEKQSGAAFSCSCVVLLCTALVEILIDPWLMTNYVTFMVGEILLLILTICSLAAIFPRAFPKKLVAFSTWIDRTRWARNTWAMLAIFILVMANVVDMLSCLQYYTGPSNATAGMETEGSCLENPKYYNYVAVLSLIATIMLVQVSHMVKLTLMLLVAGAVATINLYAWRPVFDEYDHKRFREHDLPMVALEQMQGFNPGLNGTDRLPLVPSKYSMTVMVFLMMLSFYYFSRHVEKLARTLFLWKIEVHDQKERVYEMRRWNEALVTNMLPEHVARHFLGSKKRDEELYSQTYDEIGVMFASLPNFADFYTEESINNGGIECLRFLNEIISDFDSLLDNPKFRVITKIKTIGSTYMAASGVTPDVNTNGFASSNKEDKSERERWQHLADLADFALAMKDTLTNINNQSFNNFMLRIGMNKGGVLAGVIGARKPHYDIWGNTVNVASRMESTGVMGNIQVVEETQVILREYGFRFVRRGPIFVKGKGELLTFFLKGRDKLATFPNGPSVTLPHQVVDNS
T5 sequence (P63092 whole entry Q227L partner): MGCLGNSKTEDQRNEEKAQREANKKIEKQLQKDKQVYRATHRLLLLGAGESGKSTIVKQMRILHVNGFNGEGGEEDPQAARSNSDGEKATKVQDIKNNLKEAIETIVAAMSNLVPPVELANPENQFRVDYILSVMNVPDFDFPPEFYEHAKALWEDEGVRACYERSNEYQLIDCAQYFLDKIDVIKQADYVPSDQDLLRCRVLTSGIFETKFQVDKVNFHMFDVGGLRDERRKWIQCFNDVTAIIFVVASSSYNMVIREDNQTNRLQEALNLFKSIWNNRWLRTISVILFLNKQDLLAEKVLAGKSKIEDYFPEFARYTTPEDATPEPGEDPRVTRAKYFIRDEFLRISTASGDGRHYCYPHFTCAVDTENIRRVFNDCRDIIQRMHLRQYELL
Procedure: as §1, §2

mAC7 = target: T6, mAC7 (Homo sapiens, UniProt P51828); test: AC assay, Gsα-stimulated mAC7 in membranes from transfected HEK293 cells; conditions: Figure 5-figure supplement 2 left, 20 µM
T6 construct: Human mAC genes were from GenScript and fitted with a C-terminal FLAG-tag; FLAG (C); made in house; host or cells: HEK293, permanently transfected; membrane preparation
Procedure: as §1, §2

mAC1 = target: T7, mAC1 (Homo sapiens, UniProt Q08828); test: AC assay, Gsα-stimulated mAC1 in membranes from transfected HEK293 cells
T7 construct: Human mAC genes were from GenScript and fitted with a C-terminal FLAG-tag; FLAG (C); made in house; host or cells: HEK293, permanently transfected; membrane preparation
T7 sequence (Q08828 whole entry): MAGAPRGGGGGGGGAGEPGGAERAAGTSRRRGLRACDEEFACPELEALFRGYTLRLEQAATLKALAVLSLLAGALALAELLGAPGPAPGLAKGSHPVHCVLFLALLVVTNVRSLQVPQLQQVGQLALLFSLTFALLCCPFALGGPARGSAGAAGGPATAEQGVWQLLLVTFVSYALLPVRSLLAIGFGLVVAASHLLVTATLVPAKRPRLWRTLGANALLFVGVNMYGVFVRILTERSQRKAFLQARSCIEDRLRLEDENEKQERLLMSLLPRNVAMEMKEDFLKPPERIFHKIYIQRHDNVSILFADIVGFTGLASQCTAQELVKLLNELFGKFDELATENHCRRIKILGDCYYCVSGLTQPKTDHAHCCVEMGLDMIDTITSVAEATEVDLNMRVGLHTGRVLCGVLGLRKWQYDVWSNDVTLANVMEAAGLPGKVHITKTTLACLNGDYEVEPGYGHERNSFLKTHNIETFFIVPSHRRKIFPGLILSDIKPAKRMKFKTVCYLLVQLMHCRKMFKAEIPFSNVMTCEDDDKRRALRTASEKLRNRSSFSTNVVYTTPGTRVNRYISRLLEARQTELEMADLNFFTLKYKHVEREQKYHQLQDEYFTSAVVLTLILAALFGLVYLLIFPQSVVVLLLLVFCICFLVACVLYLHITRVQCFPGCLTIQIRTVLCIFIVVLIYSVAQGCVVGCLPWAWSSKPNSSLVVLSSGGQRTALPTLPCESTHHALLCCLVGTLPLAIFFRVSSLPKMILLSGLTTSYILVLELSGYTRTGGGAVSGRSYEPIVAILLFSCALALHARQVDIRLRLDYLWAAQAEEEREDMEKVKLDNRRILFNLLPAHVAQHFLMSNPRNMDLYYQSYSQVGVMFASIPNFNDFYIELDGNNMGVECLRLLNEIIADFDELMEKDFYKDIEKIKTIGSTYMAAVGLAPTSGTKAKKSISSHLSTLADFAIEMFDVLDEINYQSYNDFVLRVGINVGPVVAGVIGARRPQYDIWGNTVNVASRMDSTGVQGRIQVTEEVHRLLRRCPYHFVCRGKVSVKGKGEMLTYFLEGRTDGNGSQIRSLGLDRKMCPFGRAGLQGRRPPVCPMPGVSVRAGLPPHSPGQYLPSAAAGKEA
Procedure: as §1, §2

mAC6 = target: T8, mAC6 (Homo sapiens, UniProt O43306); test: AC assay, Gsα-stimulated mAC6 in membranes from transfected HEK293 cells; conditions: 20µM fatty acid concentration
T8 construct: Human mAC genes were from GenScript and fitted with a C-terminal FLAG-tag; FLAG (C); made in house; host or cells: HEK293, permanently transfected; membrane preparation
T8 sequence (O43306 whole entry): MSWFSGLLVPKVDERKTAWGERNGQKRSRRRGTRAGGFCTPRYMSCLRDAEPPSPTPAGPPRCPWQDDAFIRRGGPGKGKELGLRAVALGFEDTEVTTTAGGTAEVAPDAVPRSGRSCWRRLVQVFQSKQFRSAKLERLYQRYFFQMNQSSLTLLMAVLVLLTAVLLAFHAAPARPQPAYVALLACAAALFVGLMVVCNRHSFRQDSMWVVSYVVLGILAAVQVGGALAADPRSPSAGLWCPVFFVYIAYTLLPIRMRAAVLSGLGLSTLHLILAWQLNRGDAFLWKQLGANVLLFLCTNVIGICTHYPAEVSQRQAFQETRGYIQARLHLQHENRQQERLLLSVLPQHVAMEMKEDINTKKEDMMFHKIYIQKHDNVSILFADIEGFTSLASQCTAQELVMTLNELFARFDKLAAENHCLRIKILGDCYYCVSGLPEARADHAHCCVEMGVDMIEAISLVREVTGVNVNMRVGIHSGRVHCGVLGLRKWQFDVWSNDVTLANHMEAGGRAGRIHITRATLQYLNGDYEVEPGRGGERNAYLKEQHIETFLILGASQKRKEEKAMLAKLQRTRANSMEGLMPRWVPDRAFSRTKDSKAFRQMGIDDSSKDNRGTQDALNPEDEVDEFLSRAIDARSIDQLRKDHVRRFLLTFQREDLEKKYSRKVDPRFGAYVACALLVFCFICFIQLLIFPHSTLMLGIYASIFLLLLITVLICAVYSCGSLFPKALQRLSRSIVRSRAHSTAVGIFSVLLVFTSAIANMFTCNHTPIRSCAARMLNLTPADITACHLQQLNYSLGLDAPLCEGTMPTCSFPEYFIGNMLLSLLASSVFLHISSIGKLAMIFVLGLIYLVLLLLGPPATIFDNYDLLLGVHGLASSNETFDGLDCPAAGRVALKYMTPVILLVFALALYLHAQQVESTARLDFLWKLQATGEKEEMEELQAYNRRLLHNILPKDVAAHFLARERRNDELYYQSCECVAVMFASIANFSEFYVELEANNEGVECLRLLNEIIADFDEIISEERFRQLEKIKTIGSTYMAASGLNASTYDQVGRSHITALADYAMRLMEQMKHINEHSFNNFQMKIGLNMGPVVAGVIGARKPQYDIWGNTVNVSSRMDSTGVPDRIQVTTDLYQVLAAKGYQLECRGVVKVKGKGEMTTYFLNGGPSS
Procedure: as §1, §2

mAC5 = target: T9, mAC5 (Homo sapiens, UniProt O95622); test: AC assay, Gsα-stimulated mAC5 in membranes from transfected HEK293 cells; conditions: 20µM fatty acid concentration
T9 construct: Human mAC genes were from GenScript and fitted with a C-terminal FLAG-tag; FLAG (C); made in house; host or cells: HEK293, permanently transfected; membrane preparation
Procedure: as §1, §2

[1] = 20 µM fatty acid, 300 nM Gsα, single experiments

CCCCCC/C=C\CCCCCCCC(=O)O [Palmitoleic acid, Palmitoleic ((9Z)-hexadecenoic) acid]
mAC9 activity (%);(100% = Gsα stimulation) stimulated by 300nM Gsα (mAC9): 136% and 130% and 125%
mAC8 activity [%] (100% = 300nM Gsα stimulation) (mAC8): 116% and 103% and 76%
mAC4 activity [%] (100% = 300nM Gsα stimulation); 20µM fatty acid concentration (mAC4; [1]): 58% and 74% and 53% and 64% and 83%
Effect of lipid on 300 nM Gsα-stimulated mAC4 (mAC4; 20 µM, in words): somewhat less
IC50 (mAC4; attenuation of 300 nM Gsα-stimulated activity, read-out: IC50 for mAC4): 20 µM
activity at 0.1 µM (mAC4; read-out: mAC4 activity (%);(100% = Gsα stimulation) stimulated by 300nM Gsα, 0.1 µM, 300 nM Gsα, single experiments (reference point, all 100)): 100%
activity at 25 µM (mAC4; read-out: mAC4 activity (%);(100% = Gsα stimulation) stimulated by 300nM Gsα, 25 µM, 300 nM Gsα, single experiments): 49%
activity at 50 µM (mAC4; read-out: mAC4 activity (%);(100% = Gsα stimulation) stimulated by 300nM Gsα, 50 µM, 300 nM Gsα, single experiments): 19%
activity at 60 µM (mAC4; read-out: mAC4 activity (%);(100% = Gsα stimulation) stimulated by 300nM Gsα, 60 µM, 300 nM Gsα, single experiments): 75%
activity at 100 µM (mAC4; read-out: mAC4 activity (%);(100% = Gsα stimulation) stimulated by 300nM Gsα, 100 µM, 300 nM Gsα, single experiments): 44%
mAC2 activity [%] (100% = 300nM Gsα stimulation); 20µM fatty acid concentration (mAC2): 82% and 120% and 125%
Effect of lipid on 300 nM Gsα-stimulated mAC3 (mAC3; 20 µM, in words): less efficacious
mAC3 activity [%] (100% = 300nM Gsα stimulation) (mAC3; fatty acid 20 µM, individual experiments): 151% and 133% and 248% and 259% and 116% and 136% and 292%
mAC7 activity [%] (100% = 300nM Gsα stimulation); 20µM fatty acid concentration (mAC7): 91% and 107% and 128%
IC50 (mAC1): 49 µM
activity at 1 µM (mAC1; 1 µM, 300 nM Gsα, single experiments, read-out: mAC1 activity (%);(100% = Gsα stimulation) stimulated by 300nM Gsα): 84%
activity at 6 µM (mAC1; 6 µM, 300 nM Gsα, single experiments, read-out: mAC1 activity (%);(100% = Gsα stimulation) stimulated by 300nM Gsα): 97%
mAC1 activity [%] (100% = 300nM Gsα stimulation); 20µM fatty acid concentration (mAC1; [1]): 56% and 77% and 83% and 82% and 92%
Effect of lipid on 300 nM Gsα-stimulated mAC1 (mAC1; 20 µM, in words): somewhat less
activity at 25 µM (mAC1; 25 µM, 300 nM Gsα, single experiments, read-out: mAC1 activity (%);(100% = Gsα stimulation) stimulated by 300nM Gsα): 50%
activity at 50 µM (mAC1; 50 µM, 300 nM Gsα, single experiments, read-out: mAC1 activity (%);(100% = Gsα stimulation) stimulated by 300nM Gsα): 31%
activity at 0.1 µM (mAC1; read-out: mAC1 activity (%);(100% = Gsα stimulation) stimulated by 300nM Gsα, 0.1 µM, 300 nM Gsα, single experiments (reference point, all 100)): 100%
mAC6 activity [%] (100% = 300nM Gsα stimulation) (mAC6): 71% and 89% and 68%
mAC5 activity [%] (100% = 300nM Gsα stimulation) (mAC5): 99% and 92% and 101%
